In ChEMBL document CHEMBL4020831, “Discovery of GDC-0853: A Potent, Selective, and Noncovalent Bruton's Tyrosine Kinase Inhibitor in Early Clinical Development” (J Med Chem, 2018):
Values after ≈ are worked out from the molar mass of the structure shown.

Legend:
in vitro = settings: dog, MDCK
Description: Efflux ratio of permeability in MDCK1 cells

[1] = Permeability across apical to basolateral in MDCK1 cells; format: ADME, cell-based, Canis lupus familiaris; settings: dog, MDCK; read-out: permeability
[2] = target: T1, Tyrosine-protein kinase BTK (Homo sapiens, UniProt Q06187)
Description: Inhibition of BTK in human whole blood-derived CD19+ B cells assessed as suppression of anti-IgM stimulated-CD69 expression preincubated for 1 hr followed by IgM stimulation for 18 hrs by FACS analysis

physchem = settings: buffer, pH 7.4
[3] = target: T1, Tyrosine-protein kinase BTK; test: Inhibition of human recombinant C-terminal polyhistidine tagged BTK (1 to 659 residues)-mediated synthetic peptide substrate phosphorylation expressed in baculovirus-infected insect cells
[4] = Clearance in human hepatocytes at 1 uM incubated up to 60 mins by LC-MS/MS method; format: ADME, cell-based, Hepatocyte
[5] = Clearance in human liver microsomes at 1 uM incubated up to 60 mins by LC-MS/MS method; format: ADME, microsome
LTK = LTK (Homo sapiens, UniProt P29376); test: Inhibition of recombinant human cytoplasmic GST-tagged LTK expressed in baculovirus at 1 uM by Z'-LYTE assay
TEC = target: T2, TEC (Homo sapiens, UniProt P42680); test: Inhibition of recombinant human cytoplasmic full length His-tagged TEC expressed in baculovirus at 1 uM by Z'-LYTE assay
T2 sequence (P42680 whole entry): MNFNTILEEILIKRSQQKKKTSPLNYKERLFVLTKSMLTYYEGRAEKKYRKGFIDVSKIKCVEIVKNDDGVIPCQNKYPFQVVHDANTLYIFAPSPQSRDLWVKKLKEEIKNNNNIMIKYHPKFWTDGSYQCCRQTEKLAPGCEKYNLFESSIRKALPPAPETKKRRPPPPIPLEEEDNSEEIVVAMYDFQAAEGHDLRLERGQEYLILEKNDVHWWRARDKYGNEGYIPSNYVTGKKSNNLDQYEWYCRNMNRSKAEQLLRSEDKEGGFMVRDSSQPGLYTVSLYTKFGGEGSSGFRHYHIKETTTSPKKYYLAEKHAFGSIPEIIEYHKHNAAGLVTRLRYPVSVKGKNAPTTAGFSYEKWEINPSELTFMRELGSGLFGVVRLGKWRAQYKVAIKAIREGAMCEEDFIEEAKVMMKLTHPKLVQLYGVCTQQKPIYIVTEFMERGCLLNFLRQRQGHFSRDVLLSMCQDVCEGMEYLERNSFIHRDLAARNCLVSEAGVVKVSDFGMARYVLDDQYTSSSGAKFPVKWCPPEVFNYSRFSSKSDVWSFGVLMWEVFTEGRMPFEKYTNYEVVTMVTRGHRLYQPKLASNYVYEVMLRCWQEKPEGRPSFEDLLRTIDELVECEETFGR

TXK = target: T3, TXK (Homo sapiens, UniProt P42681); test: Inhibition of human full length GST-tagged TXK expressed in baculovirus at 1 uM by Z'-LYTE assay
T3 sequence (P42681 whole entry): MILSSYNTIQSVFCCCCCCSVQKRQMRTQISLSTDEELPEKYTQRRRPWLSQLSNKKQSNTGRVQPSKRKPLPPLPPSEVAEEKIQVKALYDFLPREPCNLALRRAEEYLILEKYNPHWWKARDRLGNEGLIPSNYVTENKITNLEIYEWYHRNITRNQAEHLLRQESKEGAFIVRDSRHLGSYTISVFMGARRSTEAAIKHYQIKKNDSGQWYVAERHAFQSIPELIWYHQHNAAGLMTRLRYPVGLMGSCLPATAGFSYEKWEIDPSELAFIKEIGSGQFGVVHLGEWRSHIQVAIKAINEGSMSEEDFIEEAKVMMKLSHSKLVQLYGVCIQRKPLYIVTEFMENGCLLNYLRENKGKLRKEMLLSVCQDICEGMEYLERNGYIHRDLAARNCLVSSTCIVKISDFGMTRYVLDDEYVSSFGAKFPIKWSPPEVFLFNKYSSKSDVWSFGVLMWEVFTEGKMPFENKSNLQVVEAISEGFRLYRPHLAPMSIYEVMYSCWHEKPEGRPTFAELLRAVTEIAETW

EGFR = EGFR (Homo sapiens, UniProt P00533); test: Inhibition of recombinant human cytoplasmic GST-tagged EGFR expressed in baculovirus at 1 uM by Z'-LYTE assay
BLK = BLK (Homo sapiens, UniProt P51451); test: Inhibition of recombinant human full length His-tagged BLK expressed in baculovirus at 1 uM by Z'-LYTE assay
JAK3 = target: T4, JAK3 (Homo sapiens, UniProt P52333); test: Inhibition of recombinant human catalytic GST-tagged JAK3 expressed in baculovirus at 1 uM by Z'-LYTE assay
T4 sequence (P52333 whole entry): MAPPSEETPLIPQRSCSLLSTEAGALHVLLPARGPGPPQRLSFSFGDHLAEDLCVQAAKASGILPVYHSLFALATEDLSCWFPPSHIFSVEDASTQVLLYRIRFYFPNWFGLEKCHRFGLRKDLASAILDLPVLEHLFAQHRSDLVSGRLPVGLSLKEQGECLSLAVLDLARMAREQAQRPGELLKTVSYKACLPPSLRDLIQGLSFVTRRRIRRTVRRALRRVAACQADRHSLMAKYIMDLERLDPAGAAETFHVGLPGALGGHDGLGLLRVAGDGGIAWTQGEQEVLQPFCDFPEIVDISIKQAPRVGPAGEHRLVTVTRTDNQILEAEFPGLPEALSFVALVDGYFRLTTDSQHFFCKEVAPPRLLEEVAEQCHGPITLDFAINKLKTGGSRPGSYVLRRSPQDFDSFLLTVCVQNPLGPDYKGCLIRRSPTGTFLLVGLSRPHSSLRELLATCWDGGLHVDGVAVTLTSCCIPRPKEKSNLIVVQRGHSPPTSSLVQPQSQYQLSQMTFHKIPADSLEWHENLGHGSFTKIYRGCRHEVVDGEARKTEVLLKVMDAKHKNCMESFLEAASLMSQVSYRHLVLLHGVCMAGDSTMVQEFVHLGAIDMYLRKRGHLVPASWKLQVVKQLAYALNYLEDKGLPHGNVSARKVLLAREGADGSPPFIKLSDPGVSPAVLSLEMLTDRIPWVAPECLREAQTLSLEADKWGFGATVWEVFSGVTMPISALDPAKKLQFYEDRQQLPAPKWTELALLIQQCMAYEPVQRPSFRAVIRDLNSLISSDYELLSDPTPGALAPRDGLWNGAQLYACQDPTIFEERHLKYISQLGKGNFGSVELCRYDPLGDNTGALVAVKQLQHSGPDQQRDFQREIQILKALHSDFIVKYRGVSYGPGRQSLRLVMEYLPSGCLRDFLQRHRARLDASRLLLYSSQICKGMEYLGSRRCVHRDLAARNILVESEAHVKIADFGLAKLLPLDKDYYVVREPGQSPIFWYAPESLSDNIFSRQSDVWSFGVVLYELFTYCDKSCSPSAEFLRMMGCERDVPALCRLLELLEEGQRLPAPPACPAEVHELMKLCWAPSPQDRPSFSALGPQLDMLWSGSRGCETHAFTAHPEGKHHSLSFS

ERBB2 = ERBB2 (Homo sapiens, UniProt P04626); test: Inhibition of recombinant human cytoplasmic His-tagged ERBB2 expressed in baculovirus at 1 uM by Z'-LYTE assay
ERBB4 = ERBB4 (Homo sapiens, UniProt Q15303); test: Inhibition of recombinant human cytoplasmic GST-tagged ERBB4 expressed in baculovirus at 1 uM by Z'-LYTE assay
[6] = Kinetic solubility of the compound; format: physicochemical; settings: read-out: Kinetic_solubility
BMX = BMX (Homo sapiens, UniProt P51813); test: Inhibition of cytoplasmic recombinant human full length His-tagged BMX expressed in baculovirus at 1 uM by Z'-LYTE assay
[7] = target: T1, Tyrosine-protein kinase BTK; remark: listed apart in the source
Description: Inhibition of BTK in human whole blood derived-basophils assessed as suppression of IgE mediated-FcepsilonR ligation-stimulated CD63 expression

Sequence of ERBB4 (Q15303 whole entry): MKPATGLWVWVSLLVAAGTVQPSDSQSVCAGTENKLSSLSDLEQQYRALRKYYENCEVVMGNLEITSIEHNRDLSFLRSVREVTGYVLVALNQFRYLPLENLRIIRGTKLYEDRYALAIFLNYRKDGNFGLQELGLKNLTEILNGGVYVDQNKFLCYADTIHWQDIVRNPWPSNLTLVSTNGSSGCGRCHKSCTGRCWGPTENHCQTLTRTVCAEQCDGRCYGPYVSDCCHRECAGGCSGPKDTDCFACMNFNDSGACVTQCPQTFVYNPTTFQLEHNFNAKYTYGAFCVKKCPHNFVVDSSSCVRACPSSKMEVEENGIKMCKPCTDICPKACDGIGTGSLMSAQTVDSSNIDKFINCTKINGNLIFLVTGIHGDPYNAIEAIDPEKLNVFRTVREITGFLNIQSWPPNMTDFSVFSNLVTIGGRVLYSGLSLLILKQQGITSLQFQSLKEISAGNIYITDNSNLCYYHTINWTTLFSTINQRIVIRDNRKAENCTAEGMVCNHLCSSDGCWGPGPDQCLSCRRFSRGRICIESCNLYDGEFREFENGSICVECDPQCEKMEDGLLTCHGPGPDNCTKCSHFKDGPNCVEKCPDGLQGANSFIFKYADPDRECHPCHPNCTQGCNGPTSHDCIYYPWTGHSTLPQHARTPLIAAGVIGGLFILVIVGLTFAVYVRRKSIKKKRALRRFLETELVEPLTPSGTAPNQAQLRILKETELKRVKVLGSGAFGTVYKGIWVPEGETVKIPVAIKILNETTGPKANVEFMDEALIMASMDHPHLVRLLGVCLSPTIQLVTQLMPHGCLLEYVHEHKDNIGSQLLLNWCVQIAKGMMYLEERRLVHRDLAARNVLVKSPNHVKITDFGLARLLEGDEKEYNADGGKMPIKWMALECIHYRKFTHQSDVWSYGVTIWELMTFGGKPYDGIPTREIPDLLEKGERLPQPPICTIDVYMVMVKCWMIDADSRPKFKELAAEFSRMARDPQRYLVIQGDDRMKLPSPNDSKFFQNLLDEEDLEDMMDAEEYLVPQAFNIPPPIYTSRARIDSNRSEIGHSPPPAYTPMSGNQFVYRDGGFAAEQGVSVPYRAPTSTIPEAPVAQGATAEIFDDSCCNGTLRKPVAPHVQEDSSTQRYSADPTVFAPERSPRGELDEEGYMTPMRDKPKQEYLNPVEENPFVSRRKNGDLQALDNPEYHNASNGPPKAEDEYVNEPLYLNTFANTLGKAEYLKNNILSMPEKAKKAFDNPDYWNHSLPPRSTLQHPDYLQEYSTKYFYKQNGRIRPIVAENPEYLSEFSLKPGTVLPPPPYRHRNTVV
Sequence of BLK (P51451 whole entry): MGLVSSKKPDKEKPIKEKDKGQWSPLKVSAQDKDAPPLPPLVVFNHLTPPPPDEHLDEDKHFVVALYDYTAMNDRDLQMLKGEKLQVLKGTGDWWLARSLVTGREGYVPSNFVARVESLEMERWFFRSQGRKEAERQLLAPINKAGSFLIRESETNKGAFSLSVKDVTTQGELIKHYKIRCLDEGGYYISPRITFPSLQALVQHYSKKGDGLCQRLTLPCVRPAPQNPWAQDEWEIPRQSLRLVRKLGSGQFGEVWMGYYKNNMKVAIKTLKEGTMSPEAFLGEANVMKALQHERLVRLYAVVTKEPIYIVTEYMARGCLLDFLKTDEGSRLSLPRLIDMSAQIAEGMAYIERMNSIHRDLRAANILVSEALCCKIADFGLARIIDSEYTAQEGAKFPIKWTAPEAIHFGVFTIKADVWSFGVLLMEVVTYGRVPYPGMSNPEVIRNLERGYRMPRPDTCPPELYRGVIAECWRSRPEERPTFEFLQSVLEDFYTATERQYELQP
Sequence of LTK (P29376 whole entry): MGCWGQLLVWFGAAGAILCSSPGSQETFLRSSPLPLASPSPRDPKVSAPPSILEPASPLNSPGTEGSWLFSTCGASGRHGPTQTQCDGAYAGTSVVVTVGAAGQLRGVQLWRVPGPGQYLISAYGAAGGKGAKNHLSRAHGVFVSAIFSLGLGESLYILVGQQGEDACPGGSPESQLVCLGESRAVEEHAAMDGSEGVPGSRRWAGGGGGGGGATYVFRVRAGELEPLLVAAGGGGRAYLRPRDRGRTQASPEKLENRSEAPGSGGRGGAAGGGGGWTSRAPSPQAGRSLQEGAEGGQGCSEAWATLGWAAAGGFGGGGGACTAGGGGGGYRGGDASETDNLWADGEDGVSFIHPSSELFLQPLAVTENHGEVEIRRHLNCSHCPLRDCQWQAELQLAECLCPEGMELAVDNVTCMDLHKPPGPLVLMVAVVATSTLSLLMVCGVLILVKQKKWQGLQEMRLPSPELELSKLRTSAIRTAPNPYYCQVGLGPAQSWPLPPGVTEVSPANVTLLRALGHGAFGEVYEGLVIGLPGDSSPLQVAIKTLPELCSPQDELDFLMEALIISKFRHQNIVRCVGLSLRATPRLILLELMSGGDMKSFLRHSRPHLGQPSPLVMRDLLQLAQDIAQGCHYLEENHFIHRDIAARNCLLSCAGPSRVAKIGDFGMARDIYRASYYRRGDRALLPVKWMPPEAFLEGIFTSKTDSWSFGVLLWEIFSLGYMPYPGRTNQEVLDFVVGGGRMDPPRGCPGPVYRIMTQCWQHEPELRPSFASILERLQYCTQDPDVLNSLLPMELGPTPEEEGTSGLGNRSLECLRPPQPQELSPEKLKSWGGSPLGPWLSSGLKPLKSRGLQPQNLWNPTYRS
Sequence of ERBB2 (P04626 whole entry): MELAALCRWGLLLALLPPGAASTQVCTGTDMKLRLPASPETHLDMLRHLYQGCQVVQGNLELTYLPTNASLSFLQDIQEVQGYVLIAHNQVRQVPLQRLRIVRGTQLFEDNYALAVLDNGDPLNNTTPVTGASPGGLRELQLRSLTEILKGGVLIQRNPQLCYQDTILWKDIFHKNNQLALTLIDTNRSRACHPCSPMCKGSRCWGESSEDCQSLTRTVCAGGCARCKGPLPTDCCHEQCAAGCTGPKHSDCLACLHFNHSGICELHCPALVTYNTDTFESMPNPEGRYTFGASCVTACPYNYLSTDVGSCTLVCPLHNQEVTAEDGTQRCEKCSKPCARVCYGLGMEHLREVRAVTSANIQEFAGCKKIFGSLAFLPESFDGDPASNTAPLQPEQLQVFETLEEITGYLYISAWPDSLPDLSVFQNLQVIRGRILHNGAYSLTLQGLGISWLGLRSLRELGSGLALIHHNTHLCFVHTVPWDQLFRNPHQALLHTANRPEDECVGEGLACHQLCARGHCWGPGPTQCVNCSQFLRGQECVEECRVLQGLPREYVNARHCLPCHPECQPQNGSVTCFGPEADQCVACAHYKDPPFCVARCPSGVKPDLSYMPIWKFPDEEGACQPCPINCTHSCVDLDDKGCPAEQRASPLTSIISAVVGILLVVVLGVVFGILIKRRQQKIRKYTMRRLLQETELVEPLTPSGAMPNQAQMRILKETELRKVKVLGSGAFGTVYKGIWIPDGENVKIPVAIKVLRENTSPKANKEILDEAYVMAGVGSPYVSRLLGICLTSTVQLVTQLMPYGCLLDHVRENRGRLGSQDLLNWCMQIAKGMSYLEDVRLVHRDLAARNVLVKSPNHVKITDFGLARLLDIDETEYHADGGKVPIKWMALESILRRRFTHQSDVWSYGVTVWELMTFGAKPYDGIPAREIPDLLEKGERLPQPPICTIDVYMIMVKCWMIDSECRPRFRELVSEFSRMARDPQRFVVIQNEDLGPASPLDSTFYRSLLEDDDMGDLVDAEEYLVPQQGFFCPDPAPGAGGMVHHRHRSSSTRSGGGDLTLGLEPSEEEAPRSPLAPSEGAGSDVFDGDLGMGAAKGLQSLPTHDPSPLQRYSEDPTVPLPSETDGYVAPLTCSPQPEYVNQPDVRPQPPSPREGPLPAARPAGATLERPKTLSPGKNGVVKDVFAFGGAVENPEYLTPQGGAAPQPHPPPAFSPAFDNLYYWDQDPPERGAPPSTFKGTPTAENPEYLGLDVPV
T1 sequence (Q06187 whole entry): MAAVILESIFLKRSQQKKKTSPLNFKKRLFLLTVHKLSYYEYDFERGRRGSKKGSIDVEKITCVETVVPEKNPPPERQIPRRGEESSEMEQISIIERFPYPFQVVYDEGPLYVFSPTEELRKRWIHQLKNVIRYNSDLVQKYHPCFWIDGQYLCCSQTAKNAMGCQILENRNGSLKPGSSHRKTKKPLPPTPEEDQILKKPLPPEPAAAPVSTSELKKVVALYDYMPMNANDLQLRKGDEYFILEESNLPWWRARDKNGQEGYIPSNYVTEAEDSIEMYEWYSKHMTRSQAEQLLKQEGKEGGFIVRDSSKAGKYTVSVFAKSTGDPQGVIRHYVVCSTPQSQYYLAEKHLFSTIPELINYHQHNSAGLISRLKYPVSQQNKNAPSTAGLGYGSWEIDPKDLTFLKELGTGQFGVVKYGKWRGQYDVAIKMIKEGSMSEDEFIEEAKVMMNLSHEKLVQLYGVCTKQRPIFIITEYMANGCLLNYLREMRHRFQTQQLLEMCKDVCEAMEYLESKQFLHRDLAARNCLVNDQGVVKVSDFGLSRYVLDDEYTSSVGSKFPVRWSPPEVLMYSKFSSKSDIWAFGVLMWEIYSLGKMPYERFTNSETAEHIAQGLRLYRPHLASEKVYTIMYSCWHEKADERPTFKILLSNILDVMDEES

Compound	efflux ratio (in vitro)	Papp A→B [1]	IC50 [2]	logD (physchem)	Ki [3]	CLhep predicted at 1 µM [4]	CLhep predicted at 1 µM [5]	inhibition at 1 µM (LTK)	inhibition at 1 µM (TEC)	inhibition at 1 µM (TXK)	inhibition at 1 µM (EGFR)	inhibition at 1 µM (BLK)	inhibition at 1 µM (JAK3)	inhibition at 1 µM (ERBB2)	inhibition at 1 µM (ERBB4)	solubility kinetic [6]	inhibition at 1 µM (BMX)	IC50 [7]
C[C@@H]1CN(c2ccc(Nc3cc(-c4ccnc(N5CCn6c(cc7c6CC(C)(C)C7)C5=O)c4CO)cn(C)c3=O)nc2)[C@@H](C)CN1C1COC1	0.9	7.2 ×10⁻⁶ cm/s	0.0102 µM	3.5	0.0013 µM	12 mL/min/kg	12 mL/min/kg											
CC[C@H]1CN(C2COC2)CCN1c1ccc(Nc2cc(-c3ccnc(N4CCn5c(cc6c5CC(C)(C)C6)C4=O)c3CO)cn(C)c2=O)nc1	0.9	9.5 ×10⁻⁶ cm/s	0.0159 µM	3.6	0.00096 µM	16 mL/min/kg	12 mL/min/kg											
Cn1cc(-c2cc(F)cc(N3CCn4c(cc5c4CCCC5)C3=O)c2CO)cc(Nc2ccc(N3CCN(C4COC4)CC3)cn2)c1=O				3.1			12.3 mL/min/kg									12 µM (≈ 7.85 µg/mL)		
C=CC(=O)N1CCC[C@@H](n2nc(-c3ccc(Oc4ccccc4)cc3)c3c(N)ncnc32)C1 [IBRUTINIB]								81%	100%	93%		102%	80%	91%	93%			
C[C@H]1CN(C2COC2)CCN1c1cnc(Nc2cc(-c3ccnc(N4CCn5c(cc6c5CC(C)(C)C6)C4=O)c3CO)cn(C)c2=O)cn1	1.2	15.6 ×10⁻⁶ cm/s	0.0515 µM		0.0008 µM	10 mL/min/kg	12 mL/min/kg											
C[C@@H]1CN(C2COC2)CCN1c1ccc(Nc2cc(-c3ccnc(N4CCn5c(cc6c5CC(C)(C)C6)C4=O)c3CO)cn(C)c2=O)nc1		7.8 ×10⁻⁶ cm/s		2.8		14 mL/min/kg	15 mL/min/kg											
Cc1c(-c2c(F)cc(C(N)=O)c3[nH]c4c(c23)CC[C@@H](C(C)(C)O)C4)cccc1-n1c(=O)c2cccc(F)c2n(C)c1=O			0.0883 µM					47%	98%	81%	7%	82%	-2%	1%	38%		80%	0.374 µM
C[C@H]1CN(C2COC2)CCN1c1ccc(Nc2cc(-c3ccnc(N4CCn5c(cc6c5CC(C)(C)C6)C4=O)c3CO)nn(C)c2=O)nc1	0.9	17.3 ×10⁻⁶ cm/s	0.0161 µM	3.7		13 mL/min/kg	11 mL/min/kg											

Next, values leading:

efflux ratio (in vitro)	Papp A→B [1]	IC50 [2]	logD (physchem)	Ki [3]	CLhep predicted at 1 µM [4]	CLhep predicted at 1 µM [5]	inhibition at 1 µM (LTK)	inhibition at 1 µM (TEC)	inhibition at 1 µM (TXK)	inhibition at 1 µM (EGFR)	inhibition at 1 µM (BLK)	inhibition at 1 µM (JAK3)	inhibition at 1 µM (ERBB2)	inhibition at 1 µM (ERBB4)	solubility kinetic [6]	inhibition at 1 µM (BMX)	IC50 [7]	Compound
							2%	71%	31%	-1%	16%	-3%	36%	93%				CC#CC(=O)N1CCC[C@H]1c1nc(-c2ccc(C(=O)Nc3ccccn3)cc2)c2c(N)nccn12 [ACALABRUTINIB]
							-2%	80%	30%	1%	42%	0%	1%	57%				C=CC(=O)N1CCC(CNc2ncnc(N)c2-c2ccc(Oc3ccccc3)cc2)CC1 [EVOBRUTINIB]
							19%	92%	95%	34%	44%	89%	6%	76%		99%		C=CC(=O)Nc1cccc(Nc2nc(Nc3ccc(OCCOC)cc3)ncc2F)c1 [SPEBRUTINIB]
							-5%	86%	66%	-2%	47%	-7%	7%	28%				CC#CC(=O)N1CC[C@@H](n2c(=O)n(-c3ccc(Oc4ccccc4)cc3)c3c(N)ncnc32)C1 [TIRABRUTINIB]
